Measurements published in patent US20230174484A1, “ANTAGONISTS OF GPR39 PROTEIN” (Oregon Health & Science University, priority 2020, published 2023).

target: T1, human GPR39 receptor (Homo sapiens, UniProt O43194); experiment: Measurement of intracellular calcium response in PC3 cells (FLIPR), antagonism of the C3 agonist response; assay type: cell-based; settings: functional pKi (modified Cheng-Prusoff), inhibition of the C3 (TC-G 1008) response at EC90, 30 μM ZnCl2, read-out: fpKi activity
T1 construct: PC3 Cells, Expressing the Endogenous Human GPR39 Receptor; endogenous in cells; host or cells: PC3 (human prostate adenocarcinoma) cells
T1 sequence (O43194 1-453): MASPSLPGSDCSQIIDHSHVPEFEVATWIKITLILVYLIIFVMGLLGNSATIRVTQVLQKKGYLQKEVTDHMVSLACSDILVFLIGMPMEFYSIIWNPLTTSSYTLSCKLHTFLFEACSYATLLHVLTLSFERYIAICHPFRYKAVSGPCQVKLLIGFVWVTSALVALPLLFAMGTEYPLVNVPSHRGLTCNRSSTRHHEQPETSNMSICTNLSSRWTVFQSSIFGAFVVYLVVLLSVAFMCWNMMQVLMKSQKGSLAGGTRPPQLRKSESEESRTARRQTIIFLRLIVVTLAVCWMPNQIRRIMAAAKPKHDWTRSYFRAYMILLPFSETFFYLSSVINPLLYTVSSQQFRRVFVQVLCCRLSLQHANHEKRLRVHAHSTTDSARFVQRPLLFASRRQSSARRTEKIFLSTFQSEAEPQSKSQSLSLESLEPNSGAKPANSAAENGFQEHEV
Method in brief: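 PC3 cells with endogenous human GPR39 were loaded with Calcium-6 and read by FLIPR, with compounds tested in buffer with 30 μM final ZnCl2 and 0.32% DMSO. Peak Ca2+ signal was scored as % inhibition of the EC90 C3 response, fitted by four-parameter logistic. Functional pKi was derived via the modified Cheng-Prusoff equation.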

SMILES	Ki [nM]
CN1CCN(C(=O)c2ccc(NC(=O)C3CC3)cc2N2CCCCCC2)C(C(F)(F)F)C1 (centres unmarked) [Example 75, N-[3-(azepan-1-yl)-4-[4-methyl-2-(trifluoromethyl)piperazine-1-carbonyl]phenyl]Cyclopropanecarboxamide]	316 to 1000
CN1CCN(C(=O)c2ccc(NC(=O)C3CC3)cc2N2CCCCCC2)C(Cc2ccccc2)C1 (centres unmarked) [Example 76, N-[3-(azepan-1-yl)-4-(2-benzyl-4-methylpiperazine-1-carbonyl)phenyl]Cyclopropanecarboxamide]	63.1 to 251
CC(C)C1CN(C)CCN1C(=O)c1ccc(NC(=O)C2CC2)cc1N1CCCCCC1 (centres unmarked) [Example 79, N-[3-(azepan-1-yl)-4-(4-methyl-2-propan-2-ylpiperazine-1-carbonyl)phenyl]Cyclopropanecarboxamide]	1260 to 6310
O=C(Nc1ccc(C(=O)N2CCN(Cc3ccon3)CC2c2ccccc2)c(N2CCCCCC2)c1)C1CC1 (centres unmarked) [Example 82, N-[3-(azepan-1-yl)-4-[4-(1,2-oxazol-3-ylmethyl)-2-phenylpiperazine-1-carbonyl]phenyl]Cyclopropanecarboxamide]	≤ 50.1
CCCN1CCN(C(=O)c2ccc(NC(=O)c3ccccc3)cc2N2CCCCCC2)CC1 [Example 91, N-(3-(azepan-1-yl)-4-(4-propylpiperazine-1-carbonyl)phenyl)benzamide]	1260 to 6310
CCCN1CCN(C(=O)c2ccc(NC(=O)C3CC3(F)F)cc2N2CCCCCC2)CC1 (centres unmarked) [Example 92]	316 to 1000
CCCN1CCN(C(=O)c2ccc(NC(=O)C(C)C)cc2N2CCCCCC2)CC1 [Example 93, N-(3-(azepan-1-yl)-4-(4-propylpiperazine-1-carbonyl)phenyl)isobutyramide]	316 to 1000
CCCN1CCN(C(=O)c2ccc(NC(=O)CC)cc2N2CCCCCC2)CC1 [Example 94, N-(3-(azepan-1-yl)-4-(4-propylpiperazine-1-carbonyl)phenyl)propionamide]	316 to 1000
CCCN1CCN(C(=O)c2ccc(NC(C)=O)cc2N2CCCCCC2)CC1 [Example 95, N-(3-(azepan-1-yl)-4-(4-propylpiperazine-1-carbonyl)phenyl)acetamide]	1260 to 6310
CCCN1CCN(C(=O)c2ccc(NC(N)=O)cc2N2CCCCCC2)CC1 [Example 96, [3-(azepan-1-yl)-4-(4-propylpiperazine-1-carbonyl)phenyl]urea]	1260 to 6310
CN1CCn2c(cnc2-c2ccc(NC(=O)C3CC3)cc2N2CCCCCC2)C1 [Example 102, N-[3-(azepan-1-yl)-4-{7-methyl-5H,6H,7H,8H-imidazo[1,5-a]pyrazin-3-yl}phenyl]cyclopropanecarboxamide]	63.1 to 251
CN1CCn2c(cnc2-c2ccc(NC(=O)C3CC3)cc2N2CCCC2)C1 [Example 103, N-[4-(7-methyl-6,8-dihydro-5H-imidazo[1,5-a]pyrazin-3-yl)-3-pyrrolidin-1-ylphenyl]cyclopropanecarboxamide]	316 to 1000
CCCN1CCn2c(cnc2-c2ccc(NC(=O)C3CC3)cc2N2CCCCCC2)C1 [Example 105, N-[3-(azepan-1-yl)-4-(7-propyl-6,8-dihydro-5H-imidazo[1,5-a]pyrazin-3-yl)phenyl]cyclopropanecarboxamide]	63.1 to 251
CCCN1CCN(C(=O)c2ncc(NC(=O)C3CC3)nc2N2CCCCCC2)CC1 [Example 106, N-[6-(azepan-1-yl)-5-(4-propylpiperazine-1-carbonyl)pyrazin-2-yl]Cyclopropanecarboxamide]	1260 to 6310
CCCN1CCN(C(=O)c2ccc(NC(=O)C3CC3)nc2N2CCCCCC2)CC1 [Example 108]	63.1 to 251
CN(C)CCSc1nnc(-c2ccc(NC(=O)C3CC3)cc2N2CCCCCC2)n1C [Example 111, N-[3-(azepan-1-yl)-4-[5-[2-(dimethylamino)ethylsulfanyl]-4-methyl-1,2,4-triazol-3-yl]phenyl]Cyclopropanecarboxamide]	1260 to 6310
Cc1nnc(-c2ccc(NC(=O)C3CC3)cc2N2CCCCCC2)n1C [Example 113, N-[3-(azepan-1-yl)-4-(4,5-dimethyl-1,2,4-triazol-3-yl)phenyl]cyclopropanecarboxamide]	1260 to 6310
C[C@@H]1C[C@H](C)CN(c2cc(NC(=O)C3CC3)ccc2-c2nnc(Sc3ccccc3)n2C)C1 [Example 114b, N-[3-(3,5-dimethylpiperidin-1-yl)-4-(4-methyl-5-phenylsulfanyl-1,2,4-triazol-3-yl)phenyl]cyclopropanecarboxamide]	63.1 to 251
CC1CC(C)CN(c2cc(NC(=O)C3CC3)ccc2-c2nnc(Sc3ccccc3)n2C)C1 (centres unmarked) [Example 114c, N-[3-(3,5-dimethylpiperidin-1-yl)-4-(4-methyl-5-phenylsulfanyl-1,2,4-triazol-3-yl)phenyl]cyclopropanecarboxamide]	63.1 to 251

Other lines, results leading:

Ki [nM]	SMILES
1260 to 6310	CN1CCN(C(=O)c2ccc(NC(=O)C3CC3)cc2N2CCCCCC2)C(CO)C1 (centres unmarked) [Example 77, N-[3-(azepan-1-yl)-4-[2-(hydroxymethyl)-4-methylpiperazine-1-carbonyl]phenyl]cyclopropanecarboxamide]
316 to 1000	Cc1noc(C)c1CN1CCN(C(=O)c2ccc(NC(=O)C3CC3)cc2N2CCCCCC2)C(c2ccccc2)C1 (centres unmarked) [Example 81, N-[3-(azepan-1-yl)-4-[4-[(3,5-dimethyl-1,2-oxazol-4-yl)methyl]-2-phenylpiperazine-1-carbonyl]phenyl]cyclopropanecarboxamide]
63.1 to 251	O=C(Nc1ccc(C(=O)N2CCN(Cc3ncco3)CC2c2ccccc2)c(N2CCCCCC2)c1)C1CC1 (centres unmarked) [Example 83, N-[3-(azepan-1-yl)-4-[4-(1,3-oxazol-2-ylmethyl)-2-phenylpiperazine-1-carbonyl]phenyl]cyclopropanecarboxamide]
1260 to 6310	CCCN1CCN(C(=O)c2ccc(NC(=O)C3CCC3)cc2N2CCCCCC2)CC1 [Example 90, N-(3-(azepan-1-yl)-4-(4-propylpiperazine-1-carbonyl)phenyl)cyclobutanecarboxamide]
1260 to 6310	CCCN1CCN(C(=O)c2ccc(Nc3nnc(C4CC4)[nH]3)cc2N2CCCCCC2)CC1 [Example 98]
63.1 to 251	C[C@@H]1C[C@H](C)CN(c2cc(NC(=O)C3CC3)ccc2-c2ncc3n2CCN(C)C3)C1 [Example 104b, N-[3-(3,5-dimethylpiperidin-1-yl)-4-(7-methyl-6,8-dihydro-5H-imidazo[1,5-a]pyrazin-3-yl)phenyl] cyclopropanecarboxamide]
≤ 50.1	O=C(Nc1ccc(C(=O)N2CCC(C(F)(F)F)CC2)c(N2CCCC2)n1)C1CC1 [Example 107, N-[6-pyrrolidin-1-yl-5-[4-(trifluoromethyl)piperidine-1-carbonyl]pyridin-2-yl]Cyclopropanecarboxamide]
1260 to 6310	CSc1nnc(-c2ccc(NC(=O)C3CC3)cc2N2CCCCCC2)n1C [Example 109, N-[3-(azepan-1-yl)-4-(4-methyl-5-methylsulfanyl-1,2,4-triazol-3-yl)phenyl]Cyclopropanecarboxamide]
63.1 to 251	Cn1c(Sc2ccccc2)nnc1-c1ccc(NC(=O)C2CC2)cc1N1CCCCCC1 [Example 110, N-[3-(azepan-1-yl)-4-(4-methyl-5-phenylsulfanyl-1,2,4-triazol-3-yl)phenyl]cyclopropanecarboxamide]
316 to 1000	Cn1c(-c2ccccc2)nnc1-c1ccc(NC(=O)C2CC2)cc1N1CCCCCC1 [Example 112, N-[3-(azepan-1-yl)-4-(4-methyl-5-phenyl-1,2,4-triazol-3-yl)phenyl]cyclopropanecarboxamide]
316 to 1000	CC1CC(C)CN(c2cc(NC(=O)C3CC3)ccc2-c2nnc(Sc3ccccc3)n2CCN(C)C)C1 (centres unmarked) [Example 115, N-[4-[4-[2-(dimethylamino)ethyl]-5-phenylsulfanyl-1,2,4-triazol-3-yl]-3-(3,5-dimethylpiperidin-1-yl)phenyl]cyclopropanecarboxamide]
1260 to 6310	Cn1c(Sc2ccccn2)nnc1-c1ccc(NC(=O)C2CC2)cc1N1CCCC1 [Example 116, N-[4-(4-methyl-5-pyridin-2-ylsulfanyl-1,2,4-triazol-3-yl)-3-pyrrolidin-1-ylphenyl]cyclopropanecarboxamide]
316 to 1000	CCCN1CCN(C(=O)c2ccc(-c3nnc(C4CC4)[nH]3)cc2N2CCCCCC2)CC1 [Example 118, [2-(azepan-1-yl)-4-(5-cyclopropyl-4H-1,2,4-triazol-3-yl)phenyl]-(4-propylpiperazin-1-yl)methanone]
≤ 50.1	O=C(Nc1ccc(C(=O)N2CCS(=O)(=O)CC2)c(N2CCC3(CCC3)C2)n1)C1CC1 [Example 143, N-[6-(6-azaspiro[3.4]octan-6-yl)-5-(1,1-dioxo-1,4-thiazinane-4-carbonyl)pyridin-2-yl]cyclopropanecarboxamide]
316 to 1000	Cc1noc(-c2ccc(C(=O)N3CCC(C(F)(F)F)CC3)c(N3CCCC3)c2)n1 [Example 152, [4-(3-methyl-1,2,4-oxadiazol-5-yl)-2-pyrrolidin-1-ylphenyl]-[4-(trifluoromethyl)piperidin-1-yl]methanone]
63.1 to 251	Cc1nnc(-c2ccc(C(=O)N3CCC(C(F)(F)F)CC3)c(N3CCCC3)c2)[nH]1 [Example 153, [4-(5-methyl-4H-1,2,4-triazol-3-yl)-2-pyrrolidin-1-ylphenyl]-[4-(trifluoromethyl)piperidin-1-yl]methanone]
